Columns and labels:
p21 = p21 CALUX assay (DNA damage response); format: cell-based, human; set-up: key: –: no effect observed up to the highest test concentration; conditions: cell signaling pathway assay, 24 h exposure
Excerpt: Six of the CALUX assays (TCF through p53) detect activation of several cellular signaling pathways, which are indicative of general stress and acute toxicity, but also a range of more specific types of toxicity, including reproductive toxicity. […]
DCM ≥99.5%, chloroform ≥99.5%, DMSO ≥99.0% were purchased from VWR. […]
(§1) Polyarylethersulfone of 55,000 Da were obtained from INGE.BASF, Germany. The CALUX cell lines have been described previously.[1] They are based on human U2-OS cells (ATCC, HTB-96) stably transfected with an expression construct for the full-length human receptor under investigation, and a reporter construct consisting of multimerized responsive elements for the cognate receptor coupled to a minimal promoter element (TATA) and a luciferase gene. Cells were maintained as described previously,[2] using cell culture media and supplements from Fisher Scientific as described in the experimental procedures section. […]
(§2) In vitro reporter gene assays
(§3) The automated CALUX assays were carried out similarly as described earlier,[12] with some adaptations. In brief, the assay was performed in CO2 independent medium (Fisher Scientific, […]
(§4) supplement (Fisher Scientific, 11574466), 10 U/mL penicillin and 10 µg/mL streptomycin. A cell suspension in assay medium was made of 1 × 10^5cells/mL, and white 384-wells plates were seeded with 30 µl cell suspension/well. After 24 h, exposure medium was prepared. A dilution series in 0.5log unit increments of each test compound (in DMSO) was added to a 96-wells plate containing assay medium (2% v/v). Of this exposure mixture, 30 µl was added to the assay plates containing the CALUX cells, resulting in a final DMSO concentration of 1%. Additionally, DMSO blanks and a full dose response curve of the relevant reference compound were included on each plate. All samples were tested in triplicate. The preparation of the compound dilution series as well as the exposure of the cells were performed on a Hamilton StarLET liquid handling robot coupled to a Cytomat incubator.
(§5) Directly after exposure, plates were sealed with non-breathing plate seals (Plate sealer, easy seal transparent; Greiner-Bio-One, 676001). After 24 h the exposure medium was removed using an EL406 washer-dispenser (BioTek) and 10 µl/well triton lysisbuffer was added by the EL406.
(§6) Subsequently, the luciferase signal was measured in a luminometer (InfinitePro coupled to a Connect Stacker, both TECAN). In order to be able to detect receptor antagonism, several assays were also performed in antagonistic mode. The assay procedure was as described above, with the only exception that the EC50 concentration of the reference agonist was present during the exposure.
(§7) The luminometer data was analysed as follows; the average of the triplicate wells was determined, and the average blank (DMSO) value was subtracted. For receptor-based assays the maximum response elicited by the reference compound was set to 100% (full receptor- or pathway activation), and the other values were scaled accordingly. GraphPad Prism was used to fit a sigmoidal curve through the data (four parameters, variable slope). […] For antagonist- and cytotoxicity experiments, PC20 values were determined instead, which was defined as the concentration where the test compound causes a 20% decrease in the basal signal, which was […]
(§8) curve, the signal induction above background (DMSO) was determined, and the concentration where the compound elicited a 1.5-fold increase above background was used as LEC.

PXR = target: T1, PXR (Homo sapiens, UniProt O75469); experiment: PXR CALUX reporter gene assay; format: cell-based; set-up: key: –: no effect observed up to the highest test concentration; conditions: PC10, 24 h exposure
T1 construct: expression construct for the full-length human receptor under investigation; expressed in transfected cells; host or cells: human U2-OS cells (ATCC HTB-96), stably transfected
T1 sequence (O75469 1-434): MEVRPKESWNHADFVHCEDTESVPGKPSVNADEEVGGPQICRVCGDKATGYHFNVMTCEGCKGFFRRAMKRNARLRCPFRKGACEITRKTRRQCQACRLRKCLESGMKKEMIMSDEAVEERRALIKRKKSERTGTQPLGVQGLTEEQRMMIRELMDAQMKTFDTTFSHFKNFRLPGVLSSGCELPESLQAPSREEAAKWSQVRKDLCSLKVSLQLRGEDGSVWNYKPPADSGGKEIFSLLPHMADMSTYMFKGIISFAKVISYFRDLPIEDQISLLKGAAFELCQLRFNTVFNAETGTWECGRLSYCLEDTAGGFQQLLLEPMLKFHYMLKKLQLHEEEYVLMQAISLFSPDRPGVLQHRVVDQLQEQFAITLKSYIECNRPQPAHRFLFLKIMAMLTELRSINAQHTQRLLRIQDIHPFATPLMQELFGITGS
Excerpt: PXR activation leads to the induction of metabolic enzymes, resulting in enhanced metabolism of a wide range of compounds. […]
as §1, §2, §3, §4, §5, §6, §7, §8

human U2-OS cells = experiment: CALUX cytotoxicity assay; format: cell-based; conditions: for LEC cytotoxicity: PC20, 24 h exposure
Excerpt: as §1, with “DCM ≥99.5%, chloroform ≥99.5%, DMSO ≥99.0% were purchased from VWR. N,N-diethyl-4-nitroaniline ≥98.0% was purchased from Alfa Aeser. Cyrene was supplied by Circa group. N-butylpyrrolidinone was supplied by Eastman chemicals. N,N-dimethylformamide 99.9% and N,N-dimethylacetamide 99.9% were purchased from Fischer. The flakes of Ultrason® E3020 P Polyarylethersulfone” for “Polyarylethersulfone”
as §2, §3, §4, §5, §6
The luminometer data was analysed as follows; the average of the triplicate wells was determined, and the average blank (DMSO) value was subtracted. For receptor-based assays the maximum response elicited by the reference compound was set to 100% (full receptor- or pathway activation), and the other values were scaled accordingly. GraphPad Prism was used to fit a sigmoidal curve through the data (four parameters, variable slope). The PC10 concentration was reported as the lowest effect concentration (LEC), which is defined as the concentration where the response elicited by the test compound equals 10% of the maximum response of the reference compound. For antagonist- and cytotoxicity experiments, PC20 values were determined instead, which was defined as the concentration where the test compound causes a 20% decrease in the basal signal, which was […]
as §8

LEC PXR (PXR) | Compound | LEC p21 (p21) | LEC cytotoxicity (human U2-OS cells) | cytotoxicity lowest effect concentration (LEC) (human U2-OS cells)
−5.0 Log M | CCCCN(CC)C(=O)CCC(=O)N(CC)CCCC [EBSA, N,N′‐diethyl‐N,N′‐dibutylsuccindiamide] | – | −3.1 Log M | 
– | CN1CCCC1=O [NMP, N‐methyl‐2‐pyrrolidone, reference compound] | −2.0 Log M | −1.4 Log M | 40 mM
−3.9 Log M | CCCCN(C)C(=O)CCC(=O)N(C)CCCC [MBSA, N,N′‐dimethyl‐N,N′‐dibutylsuccindiamide] | – | −2.3 Log M | 
−6.1 Log M | CCCCN(CCCC)C(=O)CCC(=O)N(CCCC)CCCC [TBSA, N,N,N′,N′‐tetrabutylsuccindiamide] | – | −3.4 Log M | 
−3.2 Log M | CCCCN1CCCC1=O [NBP, N‐Butylpyrrolidinone, reference compound] | – | −2.1 Log M | 
